Reference: patent US8192962B2, “Processes for detecting toxic substances” (Daikin Industries, Ltd., priority 2001, dated 2012)

Tested on: Energy system protein genes
Assay: DNA chip mRNA expression in yeast, energy system protein genes (Table 4)
Type: cell-based, Saccharomyces cerevisiae S288C
In short: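 Measured as treated-to-untreated fluorescence ratio on a full-genome yeast DNA chip. Cells (S288C, YPD, 25° C.) were exposed in log phase for two hours to one chemical, dosed to curb growth without killing.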

In the case of S=C([S-])NCCNC(=S)[S-].[Zn+2] [(11), zinc N,N′-ethylenebis(dithiocarbamate)], the “The level of expressed mRNA in the presence of chemical substance/The level of expressed mRNA in the absence of chemical substance” value (yeast gene YAL060W) is reported as 2.4, the “The level of expressed mRNA in the presence of chemical substance/The level of expressed mRNA in the absence of chemical substance” value (yeast gene YBL058W, cells incubated two hours with the chemical substance) is reported as 1.3 and the “The level of expressed mRNA in the presence of chemical substance/The level of expressed mRNA in the absence of chemical substance” value (yeast gene YBL099W, cells incubated two hours with the chemical substance) is reported as 2.1. The “The level of expressed mRNA in the presence of chemical substance/The level of expressed mRNA in the absence of chemical substance” value (yeast gene YBR001C, cells incubated two hours with the chemical substance) was 1.0, the “The level of expressed mRNA in the presence of chemical substance/The level of expressed mRNA in the absence of chemical substance” value (yeast gene YBR185C, cells incubated two hours with the chemical substance) was 1.2 and the “The level of expressed mRNA in the presence of chemical substance/The level of expressed mRNA in the absence of chemical substance” value (yeast gene YBR221C, cells incubated two hours with the chemical substance) was 1.2. The “The level of expressed mRNA in the presence of chemical substance/The level of expressed mRNA in the absence of chemical substance” value (yeast gene YCL040W) was 8.2, the “The level of expressed mRNA in the presence of chemical substance/The level of expressed mRNA in the absence of chemical substance” value (yeast gene YCR012W) was 1.8 and the “The level of expressed mRNA in the presence of chemical substance/The level of expressed mRNA in the absence of chemical substance” value (yeast gene YCR046C, cells incubated two hours with the chemical substance) was 1.5. The “The level of expressed mRNA in the presence of chemical substance/The level of expressed mRNA in the absence of chemical substance” value (yeast gene YCR105W, cells incubated two hours with the chemical substance) was 2.3, the “The level of expressed mRNA in the presence of chemical substance/The level of expressed mRNA in the absence of chemical substance” value (yeast gene YDL021W) was 4.7 and the “The level of expressed mRNA in the presence of chemical substance/The level of expressed mRNA in the absence of chemical substance” value (yeast gene YDL067C, cells incubated two hours with the chemical substance) was 1.4. For the same compound, the “The level of expressed mRNA in the presence of chemical substance/The level of expressed mRNA in the absence of chemical substance” value (yeast gene YDL078C, cells incubated two hours with the chemical substance) was 1.7, the “The level of expressed mRNA in the presence of chemical substance/The level of expressed mRNA in the absence of chemical substance” value (yeast gene YDL107W, cells incubated two hours with the chemical substance) was 1.0 and the “The level of expressed mRNA in the presence of chemical substance/The level of expressed mRNA in the absence of chemical substance” value (yeast gene YDL174C) was 0.9. For the same compound, the “The level of expressed mRNA in the presence of chemical substance/The level of expressed mRNA in the absence of chemical substance” value (yeast gene YDL181W, cells incubated two hours with the chemical substance) was 0.8, the “The level of expressed mRNA in the presence of chemical substance/The level of expressed mRNA in the absence of chemical substance” value (yeast gene YDR001C) was 0.7 and the “The level of expressed mRNA in the presence of chemical substance/The level of expressed mRNA in the absence of chemical substance” value (yeast gene YDR050C, cells incubated two hours with the chemical substance) was 2.0. For the same compound, the “The level of expressed mRNA in the presence of chemical substance/The level of expressed mRNA in the absence of chemical substance” value (yeast gene YDR079W, cells incubated two hours with the chemical substance) was 1.3, the “The level of expressed mRNA in the presence of chemical substance/The level of expressed mRNA in the absence of chemical substance” value (yeast gene YDR178W, cells incubated two hours with the chemical substance) was 2.0 and the “The level of expressed mRNA in the presence of chemical substance/The level of expressed mRNA in the absence of chemical substance” value (yeast gene YDR231C) was 1.3. The “The level of expressed mRNA in the presence of chemical substance/The level of expressed mRNA in the absence of chemical substance” value (yeast gene YDR298C, cells incubated two hours with the chemical substance) was 1.2, the “The level of expressed mRNA in the presence of chemical substance/The level of expressed mRNA in the absence of chemical substance” value (yeast gene YDR377W, cells incubated two hours with the chemical substance) was 1.4 and the “The level of expressed mRNA in the presence of chemical substance/The level of expressed mRNA in the absence of chemical substance” value (yeast gene YDR529C, cells incubated two hours with the chemical substance) was 0.8. For the same compound, the “The level of expressed mRNA in the presence of chemical substance/The level of expressed mRNA in the absence of chemical substance” value (yeast gene YEL024W, cells incubated two hours with the chemical substance) was 0.9, the “The level of expressed mRNA in the presence of chemical substance/The level of expressed mRNA in the absence of chemical substance” value (yeast gene YEL039C, cells incubated two hours with the chemical substance) was 1.7 and the “The level of expressed mRNA in the presence of chemical substance/The level of expressed mRNA in the absence of chemical substance” value (yeast gene YER178W) was 2.5. For the same compound, the “The level of expressed mRNA in the presence of chemical substance/The level of expressed mRNA in the absence of chemical substance” value (yeast gene YFL057C) was 27.7, the “The level of expressed mRNA in the presence of chemical substance/The level of expressed mRNA in the absence of chemical substance” value (yeast gene YFR053C) was 1.5 and the “The level of expressed mRNA in the presence of chemical substance/The level of expressed mRNA in the absence of chemical substance” value (yeast gene YGL018C, cells incubated two hours with the chemical substance) was 1.1. For the same compound, the “The level of expressed mRNA in the presence of chemical substance/The level of expressed mRNA in the absence of chemical substance” value (yeast gene YGL062W) was 0.7, the “The level of expressed mRNA in the presence of chemical substance/The level of expressed mRNA in the absence of chemical substance” value (yeast gene YGL187C, cells incubated two hours with the chemical substance) was 0.7 and the “The level of expressed mRNA in the presence of chemical substance/The level of expressed mRNA in the absence of chemical substance” value (yeast gene YGL191W, cells incubated two hours with the chemical substance) was 1.6. The “The level of expressed mRNA in the presence of chemical substance/The level of expressed mRNA in the absence of chemical substance” value (yeast gene YGL205W, cells incubated two hours with the chemical substance) was 0.4, the “The level of expressed mRNA in the presence of chemical substance/The level of expressed mRNA in the absence of chemical substance” value (yeast gene YGL256W, cells incubated two hours with the chemical substance) was 1.0 and the “The level of expressed mRNA in the presence of chemical substance/The level of expressed mRNA in the absence of chemical substance” value (yeast gene YGR008C) was 2.6. The “The level of expressed mRNA in the presence of chemical substance/The level of expressed mRNA in the absence of chemical substance” value (yeast gene YGR043C) was 3.6, the “The level of expressed mRNA in the presence of chemical substance/The level of expressed mRNA in the absence of chemical substance” value (yeast gene YGR062C, cells incubated two hours with the chemical substance, 25° C., YPD medium) was 1.6 and the “The level of expressed mRNA in the presence of chemical substance/The level of expressed mRNA in the absence of chemical substance” value (yeast gene YGR087C, cells incubated two hours with the chemical substance) was 0.8. The “The level of expressed mRNA in the presence of chemical substance/The level of expressed mRNA in the absence of chemical substance” value (yeast gene YGR174C, cells incubated two hours with the chemical substance) was 1.3, the “The level of expressed mRNA in the presence of chemical substance/The level of expressed mRNA in the absence of chemical substance” value (yeast gene YGR192C) was 2.3 and the “The level of expressed mRNA in the presence of chemical substance/The level of expressed mRNA in the absence of chemical substance” value (yeast gene YGR244C) was 1.8. The “The level of expressed mRNA in the presence of chemical substance/The level of expressed mRNA in the absence of chemical substance” value (yeast gene YGR254W) was 1.3, the “The level of expressed mRNA in the presence of chemical substance/The level of expressed mRNA in the absence of chemical substance” value (yeast gene YGR256W) was 2.7 and the “The level of expressed mRNA in the presence of chemical substance/The level of expressed mRNA in the absence of chemical substance” value (yeast gene YHL008C) was 1.4. The “The level of expressed mRNA in the presence of chemical substance/The level of expressed mRNA in the absence of chemical substance” value (yeast gene YHR174W) was 1.4, the “The level of expressed mRNA in the presence of chemical substance/The level of expressed mRNA in the absence of chemical substance” value (yeast gene YHR179W) was 2.0 and the “The level of expressed mRNA in the presence of chemical substance/The level of expressed mRNA in the absence of chemical substance” value (yeast gene YIL045W) was 1.2. For the same compound, the “The level of expressed mRNA in the presence of chemical substance/The level of expressed mRNA in the absence of chemical substance” value (yeast gene YIL160C) was 2.4, the “The level of expressed mRNA in the presence of chemical substance/The level of expressed mRNA in the absence of chemical substance” value (yeast gene YIR031C, cells incubated two hours with the chemical substance) was 1.2 and the “The level of expressed mRNA in the presence of chemical substance/The level of expressed mRNA in the absence of chemical substance” value (yeast gene YJL052W) was 4.3. The “The level of expressed mRNA in the presence of chemical substance/The level of expressed mRNA in the absence of chemical substance” value (yeast gene YJL121C, cells incubated two hours with the chemical substance) was 1.1.
